pEC50: −log10 of the molar value.
Columns and labels:
HBV [1] = assay: Antiviral activity in AML12HBV10 cells (HBV DNA dot-blot hybridization); type: cell-based; conditions: Hepatitis B virus, Table 33, scaffold (XIV) drawing 940, 48 hours
Protocol: The antiviral efficacy of the compounds of the disclosure, as presented in Tables 21 through 39 were determined in AML12HBV10 cells. AML12HBV10 is an immortalized murine hepatocyte (AML12)-derived stable cell line that supports robust HBV replication in a tetracycline inducible manner (Xu et al.). The cells were seeded into 96 well plates at a density of 2×10^4 cells per well and cultured in DMEM/F12 media with 10% fetal bovine serum in the absence of tetracycline to allow pgRNA transcription and HBV DNA replication. One day after seeding, cells were left untreated or treated with a serial dilution of testing compounds, ranging from 50 μM to 0.39 μM, for 48 hours. Cells were then lysed by adding into each well of 100 μl lysis buffer containing 10 mM Tris-HCl (pH 7.6), 1 mM EDTA, 100 mM NaCl and 1% NP-40 and incubated at 37° C. for 30 minutes. Half amount (50 μl) of cell lysate from each well was combined with equal volume of denaturing solution containing 0.5N NaOH and 1.5M NaCl. After 5 minute incubation, 100 μl of neutralization solution (1M Tris-HCl, pH 7.4, 1.5M NaCl) was added into each well. The denatured cell lysates (totally 200 μl) were applied onto Nylon membrane using 96-well dot-blot manifold (Biorad). HBV DNA in the cell lysates were determined by dot-blot hybridization with alpha-^32P-UTP-labelled riboprobe specific for HBV minus strand DNA.

HBV [2] = assay: Antiviral activity in HepDES19 cells (core-associated HBV DNA, Southern blot hybridization); type: cell-based; conditions: Hepatitis B virus, 144 h, Table 33, scaffold (XIV) drawing 940, 6 days
Protocol: Two days after seeding, the cells were mock-treated or treated with a serial dilution of compounds of the disclosure, ranging from 10 μM to 0.018 μM, for 6 days in the absence of tetracycline. Upon the completion of treatment, cells were lysed by adding into each well of the 12-well plates 0.5 ml of lysis buffer containing 10 mM Tris-HCl (pH 8.0), 1 mM EDTA, 1% NP40 and 2% sucrose and incubating at 37° C. for 10 minutes. Cell debris and nuclei were removed by centrifugation and the supernatant was mixed with 130 μl of 35% polyethylene glycol (PEG) 8000 containing 1.5 M NaCl. After 1 hour incubation in ice, viral nucleocapsids were pelleted by centrifugation at 6,000×g for 5 min at 4° C., followed by 1 hour digestion at 37° C. in 400 μl of digestion buffer containing 0.5 mg/ml pronase (Calbiochem), 0.5% SDS, 150 mM NaCl, 25 mM Tris-HCl (pH 8.0) and 10 mM EDTA. The digestion mixture was extracted twice with phenol and DNA was precipitated with ethanol, dissolved in TE buffer (10 mM Tris-HC 1, pH 8.0; 0.1 mM EDTA). One half of the DNA sample from each well was resolved by electrophoresis into a 1.5% agarose gel. The gel was then subjected to denaturation in a solution containing 0.5 M NaOH and 1.5 M NaCl, followed by neutralization in a buffer containing 1 M Tris-HCl (pH7.4) and 1.5 M NaCl. DNA was then blotted onto Hybond-XL membrane (GE Health care) in 20×SSC buffer.

Compound	pEC50 (HBV [1])	pEC50 (HBV [2])
CC(C)[C@@H](C)NS(=O)(=O)c1cc(C(=O)Nc2ccc(F)c(F)c2)c(F)cc1F [XIV: A=H, B=F, C=H, D=F, (R)-N-(3,4-Difluorophenyl)-2,4-difluoro-5-(N-(3-methylbutan-2-yl)sulfamoyl)benzamide]	5.30 to 6.00	–
COc1ccc(S(=O)(=O)N[C@H](C)C(C)C)cc1C(=O)Nc1ccc(F)c(F)c1 [XIV: A=H, B=OMe, C=H, D=H, (R)-N-(3,4-Difluorophenyl)-2-methoxy-5-(N-(3-methylbutan-2-yl)sulfamoyl)benzamide]	> 6.00	> 6.00
CC(C)[C@@H](C)NS(=O)(=O)c1ccc(Cl)c(C(=O)Nc2ccc(F)c(F)c2)c1 [XIV: A=H, B=Cl, C=H, D=H, (R)-2-chloro-N-(3,4-Difluorophenyl)-5-(N-(3-methylbutan-2-yl)sulfamoyl)benzamide]	> 6.00	–
Cc1ccc(S(=O)(=O)N[C@H](C)C(C)C)cc1C(=O)Nc1ccc(F)c(F)c1 [XIV: A=H, B=Me, C=H, D=H, (R)-N-(3,4-Difluorophenyl)-2-methyl-5-(N-(3-methylbutan-2-yl)sulfamoyl)benzamide]	> 6.00	> 6.00

Reference: patent US9938236B2, “Antiviral agents against HBV infection” (DREXEL UNIVERSITY, priority 2012, dated 2018)
